Test results: patent publication US20170360013A1, “ANIMAL MODEL FOR DRY EYE AND METHODS OF USE OF SUCH ANIMALS” (REGENERON PHARMACEUTICALS, INC., priority 2014, published 2017)

Key:
[1] = system: C57BL/6 mice; experiment: Tear production measurement (phenol red thread) in dry eye model induction; type: in vivo, mouse; conditions: over four weeks of administration; Scop 2 mg/20 g body weight/day by s.c. osmotic pump; BAC 1 μl of 0.1-0.2% topical, twice daily, 2 days per week; relative to controls or BAC alone; p<0.001
Description: (§1) Dry eye model induction: 27 adult, male C57BL/6 mice were randomized to naïve (untreated), sham (receiving surgery equivalent to surgery for implantation of pump, but without actual implantation of pump and without scopolamine or BAC treatment), benzalkonium chloride (BAC), scopolamine (Scop) or BAC plus Scop groups.
(§2) Implantation of scopolamine pump. For Scop group, mice were subcutaneously implanted with an osmotic pump filled with Scop (2 mg/20 g body weight/day) lasting for 4 weeks. Mice were anesthetized with ketamine (120 mg/kg, IP) and xylazine (5 mg/kg, IP). Using aseptic microsurgical technique and an operating microscope, a mini-osmotic pump was placed beneath the back skin, then the skin was sutured, and erythromycin ophthalmic ointment was applied to the wound to prevent infection.
(§3) Benzalkonium chloride treatment. For BAC treatment, 1 μl of 0.1-0.2% BAC was topically administrated on the right eye ocular surface, twice daily, 2 days per week, for four weeks.
Tear production measurement and corneal fluorescein staining score. Tear production and corneal fluorescein staining were performed once per week, on day 7, 14, 21, and 28. […] Five minutes after application, corneal fluorescein staining was scored under a microscope using the National Eye Institute (NEI) scoring standards.

[2] = system: C57BL/6 mice; experiment: Flow cytometry of extraorbital lacrimal glands (CD45+ immune cell infiltration); type: in vivo, mouse; conditions: after 4 weeks of treatment; relative to controls
Description: as §1, §2, §3
Quantification of corneal angiogenesis, lymphangiogenesis and lacrimal gland infiltration. On day 28 after induction of dry eye, under deep ketamine (120 mg/kg, IP) and xylazine (5 mg/kg, IP) anesthesia, eyeballs were collected in 4% paraformaldehyde (PFA) for corneal angiogenesis and lymphangiogenesis studies. […]
Flow cytometry. […] Data was analyzed by FlowJo (Tree Star, Ashland, Oreg.).

Molecule | tear production [1] | percent of CD45+ cells in extraorbital lacrimal glands [2]
CN1[C@@H]2C[C@@H](OC(=O)[C@H](CO)c3ccccc3)C[C@H]1[C@@H]1O[C@@H]12 [Scop, scopolamine] | significantly decreases | increased
benzalkonium chloride [BAC] |  | increased
